Common to all, as to format: biochemical
Assay [1] deals with Superoxiddismutase. Kind of assay: Enzyme stabilisation by Ectoin against temperature stress in vitro: superoxide dismutase activity. The settings on record: 30 min incubation, Ectoin 1 mol/l, enzyme 0,05 mg/ml, Tris-HCl pH 6,8, difference to enzyme without Ectoin (set to 100 %). The text has this: (§1) Das Grundmedium für die Inkubation ist eine 0,25 molare Tris-HCl-Pufferlösung mit einem pH-Wert von 6,8.
(§2) Die Bestimmung der Enzymaktivität erfolgt • für Katalase nach der Methode von A. Claiborne [A. Claiborne 'Catalase Activity' in: R.A. Greenwald (Ed.), Handbook of Methods for Oxygen Radical Research, CRC Press, Boca Raton, FL. (1986) 283-284], • für Glutathionperoxidase nach der Methode von L. Flohé und W.A. Günzler [L. Flohé et al., Methods Enzymol. 105 (1989) 114-121], • für Superoxiddismutase nach der Methode von H.P. Nissen und H.W. Kreysel [H.W. Kreysel et al., 'Superoxide Dismutase in Human Semen, Klin. Wochenschr. 61 (1983) 63-65] und • für Elastase nach der Methode von L. Hornebeck und W. Hornebeck [W. Hornebeck et al., 'Characterisation of Human Skin Fibroblasts Elastase Activity', J. Invest. Dermatol. 91 (5) (1988) 472-477].
(§3) Die Ergebnisse sind für Katalase in Abb. 1, für Glutathionperoxidase in Abb. 2, für Superoxiddimutase in Abb. 3 und für Elastase in Abb. 4 dargestellt.

Assay [2] concerns the target T1, Katalase (Homo sapiens, UniProt P04040).
T1 sequence (P04040 1-527): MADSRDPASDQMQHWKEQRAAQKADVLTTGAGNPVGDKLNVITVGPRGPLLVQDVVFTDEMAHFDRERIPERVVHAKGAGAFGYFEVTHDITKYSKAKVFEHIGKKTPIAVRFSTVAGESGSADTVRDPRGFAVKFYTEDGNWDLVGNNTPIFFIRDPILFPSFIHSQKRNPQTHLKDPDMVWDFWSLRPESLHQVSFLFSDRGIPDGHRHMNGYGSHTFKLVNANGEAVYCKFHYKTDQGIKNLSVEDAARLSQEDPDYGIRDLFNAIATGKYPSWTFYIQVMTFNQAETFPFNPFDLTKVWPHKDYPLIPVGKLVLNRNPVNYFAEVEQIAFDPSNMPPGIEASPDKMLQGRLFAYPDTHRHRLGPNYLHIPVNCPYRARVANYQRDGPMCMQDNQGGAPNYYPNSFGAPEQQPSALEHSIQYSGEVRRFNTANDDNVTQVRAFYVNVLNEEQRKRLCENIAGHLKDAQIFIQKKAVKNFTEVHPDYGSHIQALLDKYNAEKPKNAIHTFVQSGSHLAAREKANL
Kind of assay: Enzyme stabilisation by Ectoin against temperature stress in vitro: catalase activity. The settings on record: for activation at 1 M: 0.5 h, read-out: Aktivität.
Source text: as §1, §2, §3

Assay [3] deals with Glutathionperoxidase. Kind of assay: Enzyme stabilisation by Ectoin against temperature stress in vitro: glutathione peroxidase activity. The conditions noted are these: 30 min incubation, Ectoin 1 mol/l, enzyme 0,05 mg/ml, Tris-HCl pH 6,8, difference to enzyme without Ectoin (set to 100 %).
Source text: as §1, §2, §3

The subject of assay [4] is Elastase. As to the kind of experiment: Enzyme stabilisation by Ectoin against temperature stress in vitro: elastase activity. The settings on record: 30 min incubation, Ectoin 1 mol/l, enzyme 0,05 mg/ml, Tris-HCl pH 6,8, difference to enzyme without Ectoin (set to 100 %).
Source text: as §1, §2, §3

Like-named read-outs stand apart in the source and are kept apart here.

`CC1=N[C@H](C(=O)O)CCN1` [Ectoin, (S)-1,4,5,6-Tetrahydro-2-methyl-4-pyrimidincarbonsäure]: the Aktivität in assay [1] (20 °C) is given as 4,9%; in assay [1] (40 °C) it was 14,4%; in assay [1] (50 °C), 17,4%; in assay [2] (50 °C, 30 min incubation, Ectoin 1 mol/l, enzyme 0,05 mg/ml, Tris-HCl pH 6,8, difference to enzyme without Ectoin (set to 100 %)), 117,9%; in assay [3] (20 °C), 3,5%; in assay [3] (30 °C) it was 1,4%. For the same compound, the Aktivität in assay [3] (40 °C) was 20,8%; in assay [3] (50 °C) it was 39,6%; in assay [4] (30 °C), 4,0%; in assay [4] (40 °C), 15,0%; in assay [4] (50 °C), 25,7%. Moreover, the “Aktivität von mit Ectoin behandelter Katalase relativ zu nicht mit Ectoin behandelter Katalase” value in assay [2] (50 °C incubation, ratio of activity with Ectoin to activity without Ectoin) is recorded as “mehr als doppelt so aktiv”. Also, the activation at 1 M in assay [2] (pH 6, 20 °C, 30 min incubation, Ectoin 1 mol/l, enzyme 0,05 mg/ml, Tris-HCl pH 6,8, difference to enzyme without Ectoin (set to 100 %)) is 2.5%; in assay [2] (pH 6, 30 °C, 30 min incubation, Ectoin 1 mol/l, enzyme 0,05 mg/ml, Tris-HCl pH 6,8, difference to enzyme without Ectoin (set to 100 %)), 10.4%; in assay [2] (pH 6, 40 °C, 30 min incubation, Ectoin 1 mol/l, enzyme 0,05 mg/ml, Tris-HCl pH 6,8, difference to enzyme without Ectoin (set to 100 %)) it was ~25%; in assay [2] (pH 6, 50 °C, 30 min incubation, Ectoin 1 mol/l, enzyme 0,05 mg/ml, Tris-HCl pH 6,8, difference to enzyme without Ectoin (set to 100 %)) it was ~120%.

(Values after patent EP1100453B1, “COSMETIC FORMULATION CONTAINING ECTOINE DERIVATIVES, ENZYMES, VITAMINS AND/OR VITAMIN DERIVATIVES” (MERCK PATENT GmbH, priority 1998, dated 2000).)
